Consider 1 substance from patent US20250228887A1, “OPHTHALMIC COMPOSITION” (ROHTO PHARMACEUTICAL CO., LTD., priority 2021, published 2025).

One experiment has as its system rabbits. Nature of the experiment: Drought stress test using rabbits (first invention, Test Example 1). Format: in vivo, Japanese white rabbits. As to conditions: 0.5 w/v % or 3 w/v % in saline, 100 μL per eye, eyelids open 3 hours; compared with Mw about 25,000; **p<0.01 Tukey; FIG. 1. How it is done:
Each test substance was prepared by dissolving sodium chondroitin sulfate having a weight-average-molecular weight of about 25,000 (commercially available from Maruha Nichiro Corporation; over-the-counter sodium chondroitin sulfate) or sodium chondroitin sulfate having a weight-average-molecular weight of about 56,000 (commercially available from Seikagaku Corporation; Grade N-K) so that the content was 0.5 w/v % or 3 w/v %, respectively, in a saline (commercially available from Otsuka Pharmaceutical Factory, Inc.).
According to the method used by Nagano et al. (New Ophthalmology, 13(2), 267-270, 1996), rabbits divided into 5 groups (n=5) (Japanese white rabbits (commercially available from Kitayama Labes Co. Ltd.)) were subjected to general anesthesia, and then gloves with ring-shaped fingers were put on their left and right eyeballs and the eyelids were forcibly opened. […] After the cornea was removed from the ocular surface, the methylene blue dye was extracted, and the absorbance was measured using a microplate reader Multiskan GO (commercially available from Thermo Fisher Scientific) at 660 nm. Here, eye dryness caused corneal damage, and increased the amount of dye adhered to the cornea surface, and thus it could be evaluated that the higher the absorbance value, the drier the eyes were.

In experiment [1] the test system is human corneal epithelial cell line HCE-T cells. Nature of the experiment: Cell dry test (first invention, Test Example 13). Format: cell-based. As to conditions: 8, 13, 14 vs test solution 4; 11, 12 vs test solution 5; 1% vs 0.5%. How it is done:
Ophthalmic compositions were prepared according to a general method using the formulations shown in Table 12 and used as test solutions. The units of the components in Table 12 are w/v % unless specified in the table. 100 μL of human corneal epithelial cell line HCE-T cells at a concentration of 1×10^5 cells/mL was seeded in each well in a 96-well plate (commercially available from Corning Inc.), and cultured in a CO2 incubator set at 37° C., a humidity of 90%, and a concentration of 5% CO2 until the cells became confluent. […] After each ophthalmic composition was removed by suction from each well, drought stress was applied by leaving it in a clean bench for 20 minutes, and the number of viable cells was then evaluated. In order to evaluate the number of viable cells, 10 μL of a cell number measurement reagent (Cell counting kit-8, commercially available from Dojindo Molecular Technologies, Inc.) per 100 μL of the medium was put into each well, and culturing was performed under conditions of 37° C., 5% CO2, and a humidity of 90% for 2 to 3 hours, and measurement was then performed using an absorbance meter (commercially available from MOLECULAR DEVICES) at 450 nm. Here, the higher the value of the absorbance, the greater the number of viable cells.

With sodium chondroitin sulfate, the “absorbance at 660 nm of methylene blue dye extracted from the cornea (corneal damage caused by eye dryness), in words” value with rabbits is recorded as “significantly lower absorbance”. The “number of viable cells after drought stress, comparison in words” value in experiment [1] is “the number of viable cells significantly increased at 1%”.
